Laboratory results published in patent US10414778B2, “Methods for treatment of resistant cancer” (New Mexico Tech University Research Park Corporation, priority 2016, dated 2019).
Where two headings read alike, the source gives them in different places.

How the values were obtained:
Assay type in all cases: cell-based, human
HeLa cells = assay: MTT in vitro growth inhibition assay, HeLa; conditions: two independent experiments
Experimental: (§1) Human cancer cell lines were obtained from the American Type Culture Collection (ATCC, Manassas, Va., USA), the European Collection of Cell Culture (ECACC, Salisbury, UK), and the Deutsche Sammlung von Mikroorganismen und Zellkulturen (DSMZ, Braunschweig, Germany). Human cervical adenocarcinoma HeLa cells were cultured in DMEM supplemented with 10% fetal bovine serum (FBS). Human mammary carcinoma MCF-7 cells were cultured in RPMI supplemented with 10% FBS. The U87 cells (ATCC HTB-14) were cultured in DMEM culture medium, while the A549 cells (DSMZ ACC107) were cultured in RPMI culture medium supplemented with 10% heat-inactivated FBS. The GBM Hs683 (ATCC HTB-138) and the T98G (ATCC CRL-1690) cell lines were cultivated in DMEM supplemented with 10% FBS. The GBM U251 cells (ECACC code 09063001) were cultured in 10% MEM. The human uterine sarcoma MES-SA and MES-SA/Dx5 cells were cultured in RPMI-1640 medium supplemented with 10% FBS with MES SA/Dx5 maintained in the presence of 500 nM Doxorubicin (Sigma™). The U373 glioblastoma cells (ECACC 08061901) were cultured in RPMI culture medium supplemented with 10% heat-inactivated FBS.
(§2) Spirodienones 4a-m were subjected to in vitro growth inhibition 3-(4,5-dimethylthiazol-2-yl)-2,5-diphenyltetrazolium bromide (MTT) assays against two cell lines, human HeLa cervical and MCF-7 breast adenocarcinomas.
(§3) All compounds were dissolved in DMSO at a concentration of either 100 mM or 50 mM prior to cell treatment. The cells were trypsinized and seeded at various cell concentrations depending on the cell type. The cells were grown for 24 h to 72 h, treated with compounds at concentrations ranging from 0.001 to 100 μM, and incubated for 48, 72, or 96 h in 100 or 200 μL media depending on the cell line used. Cells treated with 0.1% DMSO were used as a negative control, and cells treated with 1 μM phenyl arsine oxide (PAO) were used as a positive control.
(§4) To determine the activities of the compounds of the invention toward cancer cells, cell lines treated with different compounds were subjected to an in vitro MTT growth assay using human cervical cancer (HeLa) and human adenocarcinoma (MCF-7) cell lines. The MTT growth assay is a colorimetric assay that measures the metabolic activity of cells via reduction of 3-(4,5-dimethylthiazol-2-yl)-2,5-diphenyltetrazolium bromide (MTT). The reduction of MTT occurs in metabolically-active cells and is characterized by a purple color, which can be quantified via spectrophotometry. A higher absorbance reading indicates a metabolically-active cell, while a low absorbance reading indicates low metabolic activity due to, for example, inhibition of cellular proliferation or cell death.
(§5) The values in TABLE 4 are the mean and standard deviation calculated from two independent experiments, which were performed in 4 replicates.

MCF-7 cells = assay: MTT in vitro growth inhibition assay, MCF-7; conditions: two independent experiments
Experimental: as §1, §2, §3, §4, §5

A549 cells = assay: MTT growth inhibition, A549 NSCLC; conditions: 48 hours, up to 100 μM, FIGS. 4-7
Experimental: as §1, §3
Drug-resistant cell lines (i.e., glioma: Hs683, U373, U251, U87, T98G; lung cancer: A549, H2073; uterine carcinoma: MES-SA/Dx5) were complemented with drug-sensitive cell lines, H1993 lung cancer and MES-SA uterine cancer, which were used as controls. […] The GI50 values were calculated after 48-96 hours of treatment with the indicated compounds in replicate using the MTT growth assay.
Compounds 5l and 5g were further tested using the A549 lung cancer cell line to determine a dose-response effect on apoptosis-resistant cells. (FIGS. 4-7). […] The MTT assay was performed in four replicates after 48 hours of treatment with the indicated compounds relative to a DMSO control.

H2073 cells = assay: MTT growth inhibition, H2073 drug-resistant NSCLC; conditions: Homo sapiens, NCI-H2073, MTT
Experimental: NSCLC cell lines H1993 and H2073 were obtained from the Hamon Center for Therapeutic Oncology Research at UT Southwestern Medical Center and cultured in RPMI-1640 medium (Mediatech, VA, USA) supplemented with 5% heat-inactivated FBS (Mediatech™), 100 units/mL penicillin and 0.1 mg/mL streptomycin (Sigma™). All cell lines were cultured in T25 flasks, maintained, and grown at 37° C., 95% humidity, 5% CO2.
as §3
Spirodienone 4l was evaluated against patient-derived NSCLC cell line H1993 and its drug-resistant variant, H2073. The patient-derived NSCLC cell line […] was obtained from a regrown tumor at a primary site after a patient relapsed several months later.
(§6) Due to their high potencies, compounds 5l and 5g were used to determine the effects of the compounds on drug-resistant tumor cells. Drug-resistant cell lines (i.e., glioma: Hs683, U373, U251, U87, T98G; lung cancer: A549, H2073; uterine carcinoma: MES-SA/Dx5) were complemented with drug-sensitive cell lines, H1993 lung cancer and MES-SA uterine cancer, which were used as controls. Bulbispermine and paclitaxel were also used as controls. The GI50 values were calculated after 48-96 hours of treatment with the indicated compounds in replicate using the MTT growth assay.
Compound 5l was further tested to determine the effect of compounds of the invention on drug-resistant tumor cells. A patient-derived non-small cell lung cancer (NSCLC) line, H1993, and the drug-resistant variant of H1993, H2073, were used for testing. The H1993 cell line was obtained from a lymph node metastasis isolated from the patient prior to chemotherapy. The H2073 cell line was derived from a regrown tumor at the primary site after the patient had relapsed several months after administration of the chemotherapy regimen.

MES-SA/Dx5 cells = assay: MTT growth inhibition, MDR uterine sarcoma MES-SA/Dx5; conditions: Homo sapiens, MES-SA/Dx5, MTT
Experimental: as §1, §3
Compound 4l was also evaluated against the MDR uterine sarcoma cell line (MES-SA/Dx5 to evaluate whether the compounds of the invention were substrates for the MDR cancer efflux systems. The MES-SA/Dx5 cell line was established from the parent uterine sarcoma MES-SA, grown in the presence of increasing concentrations of doxorubicin and is known to be resistant to a number of P-gp substrates.
The selection of doxorubicin-resistant cells (MES-SA/Dx5 cell line) was performed by splitting the cells and allowing the cells to adhere overnight. The next day, the cells were initially exposed to a DOX concentration of 100 nM, which represented the GI50 concentration. The cells were maintained at this DOX concentration until their growth rate reached that of the untreated cells. The DOX concentration was then increased in two-fold increments following the same growth criteria at each concentration to a final DOX concentration of 500 nM. Each new DOX concentration required approximately 2 passages to reach the growth rate of the untreated cells.
as §6

[1] = Homo sapiens, HeLa, 48 h treatment, ± SD, read-out: cell viability GI50, HeLa
[2] = Homo sapiens, MCF7, MCF-7, 48 h treatment, ± SD, read-out: cell viability GI50, MCF-7
[3] = Homo sapiens, HeLa, Table 4, 48-hour treatment, mean and standard deviation, read-out: HeLa Cell Viability GI50
[4] = Homo sapiens, MCF7, Table 4, 48-hour treatment, mean and standard deviation, read-out: MCF-7 Cell Viability GI50

O=C1C=CC2(C=C1)CCN(C(=O)C(F)(F)F)Cc1cc3c(cc12)OCO3 [Compound 4a]
GI50 (HeLa cells; [1]): 24 ± 2 µM
GI50 (MCF-7 cells; [2]): 30 ± 2 µM

COc1cc2c(cc1OC)C1(C=CC(=O)C=C1)CCN(C(=O)C(F)(F)F)C2 [Compound 4b]
GI50 (HeLa cells; [1]): 83 ± 5 µM
GI50 (MCF-7 cells; [2]): > 100 µM

O=C1C=CC2(C=C1)CCN(C(=O)C(F)(F)F)Cc1cc3c(cc12)OCCO3 [Compound 4c]
GI50 (HeLa cells; [1]): 21 ± 1 µM
GI50 (MCF-7 cells; [2]): 34 ± 12 µM

O=C1C=CC2(C=C1)CCN(C(=O)C(F)(F)F)Cc1c2ccc2c1OCO2 [Compound 4d]
GI50 (HeLa cells; [1]): > 100 µM
GI50 (MCF-7 cells; [2]): > 100 µM

COc1cc2c(cc1OCc1ccccc1)CN(C(=O)C(F)(F)F)CCC21C=CC(=O)C=C1 [Compound 4e]
GI50 (HeLa cells; [1]): 38 ± 2 µM
GI50 (MCF-7 cells; [2]): 48 ± 3 µM

COc1cc2c(cc1OCc1ccccc1)C1(C=CC(=O)C=C1)CCN(C(=O)C(F)(F)F)C2 [Compound 4f]
GI50 (HeLa cells; [1]): 34 ± 4 µM
GI50 (MCF-7 cells; [2]): 34 ± 2 µM

O=C1C=CC2(C=C1)CCN(C(=O)C(F)(F)F)Cc1cc(OCc3ccccc3)c(OCc3ccccc3)cc12 [Compound 4g]
GI50 (HeLa cells; [1]): 17 ± 1 µM
GI50 (MCF-7 cells; [2]): 25 ± 2 µM

O=C1C=CC2(C=C1)CCN(C(=O)C(F)(F)F)Cc1cc(OCc3ccccc3)ccc12 [Compound 4h]
GI50 (HeLa cells; [1]): 16 µM
GI50 (MCF-7 cells; [2]): 40 ± 1 µM

O=C1C=CC2(C=C1)CCN(C(=O)C(F)(F)F)Cc1cccc(OCc3ccccc3)c12 [Compound 4i]
GI50 (HeLa cells; [1]): 11 ± 2 µM
GI50 (MCF-7 cells; [2]): 14 ± 2 µM

O=C1C=C[C@]23CC[N@](Cc4cc5c(cc42)OCO5)[C@H]3C1 [Compound 5a]
GI50 (HeLa cells; [3]): 25.4 ± 3 µM
GI50 (MCF-7 cells; [4]): 23.9 ± 0.7 µM

COc1cc2c(cc1OC)[C@@]13C=CC(=O)C[C@@H]1[N@](CC3)C2 [Compound 5b]
GI50 (HeLa cells; [3]): 63.5 ± 2.7 µM
GI50 (MCF-7 cells; [4]): > 100 µM

O=C1C=C[C@]23CC[N@](Cc4cc5c(cc42)OCCO5)[C@H]3C1 [Compound 5c]
GI50 (HeLa cells; [3]): 12.7 ± 2.3 µM
GI50 (MCF-7 cells; [4]): 18.6 ± 0.8 µM

O=C1C=C[C@]23CC[N@](Cc4c2ccc2c4OCO2)[C@H]3C1 [Compound 5d]
GI50 (HeLa cells; [3]): 60.5 ± 4.7 µM
GI50 (MCF-7 cells; [4]): 72.5 ± 2.5 µM

COc1cc2c(cc1OCc1ccccc1)C[N@@]1CC[C@@]23C=CC(=O)C[C@H]13 [Compound 5e]
GI50 (HeLa cells; [3]): 11.8 ± 0.5 µM
GI50 (MCF-7 cells; [4]): 14.5 ± 1 µM

COc1cc2c(cc1OCc1ccccc1)[C@@]13C=CC(=O)C[C@@H]1[N@](CC3)C2 [Compound 5f]
GI50 (HeLa cells; [3]): 16.7 ± 1.8 µM
GI50 (MCF-7 cells; [4]): 16.8 ± 0.2 µM

O=C1C=C[C@]23CC[N@](Cc4cc(OCc5ccccc5)ccc42)[C@H]3C1 [Compound 5h]
GI50 (HeLa cells; [3]): 7.9 ± 0.3 µM
GI50 (MCF-7 cells; [4]): 14.4 ± 1 µM

O=C1C=C[C@]23CC[N@](Cc4cccc(OCc5ccccc5)c42)[C@H]3C1 [Compound 5i]
GI50 (HeLa cells; [3]): 7.37 ± 0.9 µM
GI50 (MCF-7 cells; [4]): 11 µM

O=C1C=C[C@]23CC[N@](Cc4cscc42)[C@H]3C1 [Compound 5k]
GI50 (HeLa cells; [3]): 25.4 ± 5.2 µM
GI50 (MCF-7 cells; [4]): 43.6 ± 2.1 µM

CO[C@@H]1C=C[C@@]23c4cc5c(cc4CN(C[C@@H]2O)[C@H]3C1)OCO5 [Haemanthamine, reference compound]
GI50 (HeLa cells; Table 4, 48-hour treatment, mean and standard deviation, read-out: HeLa Cell Viability GI50): 1.8 ± 0.3 µM
GI50 (MCF-7 cells; Table 4, 48-hour treatment, mean and standard deviation, read-out: MCF-7 Cell Viability GI50): 2.1 ± 0.2 µM

COc1cc([C@@H]2c3cc4c(cc3[C@H](O)[C@H]3COC(=O)[C@H]23)OCO4)cc(OC)c1OC [PODO, podophyllotoxin, reference compound]
anti-proliferative activity, dose-response (absorbance at 595 nm) (A549 cells): did not display such potent anti-proliferative activity

CC(=O)O[C@H]1C(=O)[C@@]2(C)[C@H]([C@H](OC(=O)c3ccccc3)[C@]3(O)C[C@H](OC(=O)[C@H](O)[C@@H](NC(=O)c4ccccc4)c4ccccc4)C(C)=C1C3(C)C)[C@]1(OC(C)=O)CO[C@@H]1C[C@@H]2O [paclitaxel, reference compound]
anti-proliferative activity, dose-response (absorbance at 595 nm) (A549 cells): did not display such potent anti-proliferative activity
GI50 (H2073 cells; Table 3, 48-96 h treatment, read-out: GI50 in vitro values, lung cancer H2073): 2.4 µM
GI50 (H2073 cells; Table 5, 48-96 hours of treatment, read-out: GI50, Lung Cancer H2073): 2.4 µM
GI50 (MES-SA/Dx5 cells; Table 3, 48-96 h treatment, read-out: GI50 in vitro values, uterine sarcoma MES-SA/Dx5): 10 µM
GI50 (MES-SA/Dx5 cells; Table 5, 48-96 hours of treatment, read-out: GI50, Sarcoma MES-SA/Dx5): 10 µM
